In paper PMC10513218, “Effect of Green and Red Thai Kratom (Mitragyna speciosa) on pancreatic digestive enzymes (alpha-glucosidase and lipase) and acetyl-carboxylase 1 activity: A possible therapeutic target for obesity prevention” (PLOS ONE, 2023):
Several values for one entry are separate records, joined by “and”; a condition that tells them apart may be missing. Equal values may be shown once. Read-outs that look alike come from different tables or passages of the source.

Assays:
ACC1 = test system: T1, ACC1; assay: ACC1 inhibition assay (ACC1 Assay Kit, acetyl-CoA decrease by HPLC); assay type: biochemical; conditions: for Effect on ACC1 activity: 0, 1, 10, 100 μM
T1 construct: purchased BPS Bioscience (USA)
Description: An ACC1 inhibition assay was performed using the ACC1 Assay Kit from BPS Bioscience (USA) following the manufacturer’s protocol. […] After a 10-minute pre-incubation period, the reaction was initiated by adding 0.1 ng/mL of ACC1 enzyme. The reactions were allowed to proceed for 40 minutes before being terminated by the addition of 100 μl of chilled acetonitrile. The samples were then centrifuged, and the supernatants were carefully transferred to new tubes for analysis. The rate of reaction was quantified by monitoring the decrease in acetyl-CoA substrate concentration using a C18 HPLC column, employing a mobile phase consisting of a linear gradient of water and methanol.

lipase = biological target: T2, lipase (Homo sapiens, UniProt P16233); assay: Inhibition of lipase with pNPP as substrate; assay type: biochemical
T2 sequence (P16233 17-465): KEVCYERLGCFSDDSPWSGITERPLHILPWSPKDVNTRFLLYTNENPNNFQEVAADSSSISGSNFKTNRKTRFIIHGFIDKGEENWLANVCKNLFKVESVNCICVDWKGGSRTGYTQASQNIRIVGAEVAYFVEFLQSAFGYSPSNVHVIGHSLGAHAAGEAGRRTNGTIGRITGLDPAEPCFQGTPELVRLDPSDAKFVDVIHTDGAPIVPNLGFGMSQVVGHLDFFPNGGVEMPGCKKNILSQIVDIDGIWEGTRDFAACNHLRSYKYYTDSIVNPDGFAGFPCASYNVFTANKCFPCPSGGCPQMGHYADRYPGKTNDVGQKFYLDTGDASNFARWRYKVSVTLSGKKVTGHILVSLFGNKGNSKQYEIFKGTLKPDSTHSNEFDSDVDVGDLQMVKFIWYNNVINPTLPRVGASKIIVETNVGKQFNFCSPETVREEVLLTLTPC
Description: Inhibition of lipase was performed using p-nitrophenyl palmitate (pNPP) as a substrate. […] The IC50 was determined by plotting the remaining activity of lipase at each inhibitor concentration and […]. […] After 10 min, the reactions were started by the addition of pNPP at 0.02, 0.03, 0.06, 0.125, 0.25, 3.5 and 5 mM. The mode of inhibition and inhibition constant (Ki) were determined by Lineweaver-Burk plots.

alpha-glucosidase [1] = biological target: T3, alpha-glucosidase (Saccharomyces cerevisiae, UniProt P53341); assay: Inhibition of alpha-glucosidase with pNPG as substrate; assay type: biochemical; conditions: for Mode of inhibition of alpha-glucosidase: Lineweaver-Burk plots
T3 sequence (P53341 whole entry): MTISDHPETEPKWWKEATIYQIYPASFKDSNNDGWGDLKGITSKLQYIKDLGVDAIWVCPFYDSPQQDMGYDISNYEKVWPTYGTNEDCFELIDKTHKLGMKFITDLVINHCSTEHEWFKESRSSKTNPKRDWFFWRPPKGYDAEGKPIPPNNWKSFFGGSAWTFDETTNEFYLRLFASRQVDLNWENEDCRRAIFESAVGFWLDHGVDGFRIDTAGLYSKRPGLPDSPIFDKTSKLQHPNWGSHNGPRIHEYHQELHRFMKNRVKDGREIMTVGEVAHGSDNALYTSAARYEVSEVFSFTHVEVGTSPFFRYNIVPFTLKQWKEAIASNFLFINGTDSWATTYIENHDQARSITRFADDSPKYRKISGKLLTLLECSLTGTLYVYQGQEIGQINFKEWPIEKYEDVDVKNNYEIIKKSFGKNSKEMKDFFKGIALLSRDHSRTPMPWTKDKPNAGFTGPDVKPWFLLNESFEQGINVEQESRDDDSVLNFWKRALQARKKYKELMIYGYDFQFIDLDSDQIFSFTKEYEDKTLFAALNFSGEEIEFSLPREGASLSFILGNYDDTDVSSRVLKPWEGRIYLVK
Description: Inhibition of alpha-glucosidase was performed using p-nitrophenol-α-D-glucopyranoside (pNPG) as a substrate. […] After 10 min, the reactions were started with the addition of pNPG at 0.007, 0.015, 0.03, 0.06, 0.125, 0.25, and 5 mM. The mode of inhibition and inhibition constant (Ki) were determined by Lineweaver-Burk plots.

alpha-glucosidase [2] = biological target: T3, alpha-glucosidase; set-up: method as in doi:10.1016/j.fshw.2014.11.003; conditions: cited from earlier work
[3] = HFD-induced rats, versus control group; cited from earlier work

CCC1CN2CCc3c([nH]c4cccc(OC)c34)C2CC1/C(=C\OC)C(=O)OC (centres unmarked) [Mitragynine]
Effect on ACC1 activity (ACC1): not and weak inhibitory effect | IC50 (lipase): 27.4 ± 2.9 µM | Ki (lipase; Ki lipase, Lineweaver-Burk plots, pNPP): 13.7 µM and 7 µM | Mode of inhibition of lipase (lipase; Lineweaver-Burk plots): Competitive inhibition | Mode of inhibition of alpha-glucosidase (alpha-glucosidase [1]): mix-typed inhibition | Alpha-glucosidase IC50 lower than acarbose (alpha-glucosidase [1]; ratio of acarbose IC50 to IC50): 7.3 fold

CCCCCCCCCCC[C@@H](C[C@@H]1OC(=O)[C@H]1CCCCCC)OC(=O)[C@H](CC(C)C)NC=O [Orlistat, orlistat, reference compound]
Mode of inhibition of lipase (lipase; Lineweaver-Burk plots): Competitive inhibition

C[C@H]1O[C@H](O[C@H]2[C@H](O)[C@@H](O)[C@@H](O[C@H]3[C@H](O)[C@@H](O)C(O)O[C@@H]3CO)O[C@@H]2CO)[C@H](O)[C@@H](O)[C@@H]1N[C@H]1C=C(CO)[C@@H](O)[C@H](O)[C@H]1O (some centres unmarked) [Acarbose, acarbose, reference compound]
Mode of inhibition of alpha-glucosidase (alpha-glucosidase [1]): Non-competitive inhibition

COc1ccc2c(c1)[nH]c1c3c(c(C)cc12)O[C@](C)(CCC=C(C)C)C=C3 [O-methyl mahanine]
IC50 (alpha-glucosidase [2]): 46.1 µM

O=c1c(O)c(-c2ccc(O)c(O)c2)oc2cc(O)cc(O)c12 [Quercetin]
Effect on ACC1 activity (ACC1): decreased ACC1 activity in a dose-dependent manner | Decrease of ACC1 activity (ACC1; 100 μM): 60% | Mode of inhibition of lipase (lipase; Lineweaver-Burk plots): Competitive inhibition | Plasma triglyceride [3]: lower than in the control group

C[C@@H]1O[C@@H](OC[C@H]2O[C@@H](Oc3c(-c4ccc(O)c(O)c4)oc4cc(O)cc(O)c4c3=O)[C@H](O)[C@@H](O)[C@@H]2O)[C@H](O)[C@H](O)[C@H]1O [Rutin, rutin]
IC50 (lipase; pure compounds and positive control, pNPP at Km 1.3 mM, unit given, read-out: Half-maximal inhibitory concentration (IC50) Lipase): > 100 µM
